Test results taken from ChEMBL document CHEMBL1148458, “Incorporating molecular shape into the alignment-free Grid-Independent Descriptors” (J Med Chem, 2004).

What was measured:
Adenosine receptor A1 = biological target: T1, Adenosine receptor A1 (Homo sapiens, UniProt P30542); assay: Binding affinity at adenosine A1 receptor.
T1 sequence (P30542 whole entry): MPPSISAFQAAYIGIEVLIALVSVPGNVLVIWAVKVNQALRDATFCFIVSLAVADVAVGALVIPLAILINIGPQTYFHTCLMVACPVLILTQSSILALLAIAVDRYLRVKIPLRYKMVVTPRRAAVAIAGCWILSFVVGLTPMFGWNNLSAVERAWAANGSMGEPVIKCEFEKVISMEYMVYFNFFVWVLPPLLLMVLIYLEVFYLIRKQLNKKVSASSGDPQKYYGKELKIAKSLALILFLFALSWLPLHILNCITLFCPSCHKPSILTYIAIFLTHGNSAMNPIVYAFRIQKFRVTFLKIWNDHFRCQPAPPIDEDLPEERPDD

Cathepsin D = Cathepsin D (Homo sapiens, UniProt P07339); assay: Binding affinity towards human cathepsin D.
Cathepsin D, sequence (P07339 65-162 limits assumed): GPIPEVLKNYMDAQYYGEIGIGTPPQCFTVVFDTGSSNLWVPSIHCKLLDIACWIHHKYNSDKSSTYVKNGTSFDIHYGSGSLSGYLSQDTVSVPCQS
Cathepsin D, sequence (P07339 169-412 limits assumed): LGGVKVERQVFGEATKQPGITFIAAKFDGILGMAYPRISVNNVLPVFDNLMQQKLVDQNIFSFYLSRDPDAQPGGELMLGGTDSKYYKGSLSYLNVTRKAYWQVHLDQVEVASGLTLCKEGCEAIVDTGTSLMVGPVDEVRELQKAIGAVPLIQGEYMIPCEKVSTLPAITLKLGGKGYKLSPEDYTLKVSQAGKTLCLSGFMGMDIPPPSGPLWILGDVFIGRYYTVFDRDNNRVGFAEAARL

Plasmepsin II = Plasmepsin II (Plasmodium falciparum, UniProt P46925); assay: Binding affinity towards plasmepsin-2 in Plasmodium falciparum.
Plasmepsin II, sequence (P46925 whole entry): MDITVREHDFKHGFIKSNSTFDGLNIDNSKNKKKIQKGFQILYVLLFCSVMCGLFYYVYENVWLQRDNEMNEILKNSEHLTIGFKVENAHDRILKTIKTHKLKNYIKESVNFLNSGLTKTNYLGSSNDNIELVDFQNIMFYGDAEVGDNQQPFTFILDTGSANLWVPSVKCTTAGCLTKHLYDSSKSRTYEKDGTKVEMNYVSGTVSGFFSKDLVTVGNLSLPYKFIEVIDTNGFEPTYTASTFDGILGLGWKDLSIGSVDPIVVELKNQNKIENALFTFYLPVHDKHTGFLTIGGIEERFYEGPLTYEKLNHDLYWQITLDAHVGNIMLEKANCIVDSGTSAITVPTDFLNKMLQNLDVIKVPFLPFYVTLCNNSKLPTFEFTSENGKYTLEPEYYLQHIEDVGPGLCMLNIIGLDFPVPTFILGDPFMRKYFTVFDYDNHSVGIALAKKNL

Ki (Adenosine receptor A1) | Ki (Cathepsin D) | Ki (Plasmepsin II) | SMILES
2.27 µM |  |  | CCCC1C(=O)c2nc(CN3N=C(c4ccccc4)CCC3=O)[nH]c2N(C)C1=O (stereo not given)
 | 1.3 µM | 12 µM | CCCCNC(=O)CC(O)C(Cc1ccccc1)NC(=O)C(Cc1ccccc1)NC(=O)COc1ccc2ccccc2c1 (stereo not given)
53.8 µM |  |  | CC1C(=O)c2nc(CN3N=C(c4ccccc4)CCC3=O)[nH]c2N(C)C1=O (stereo not given)
 | 3.9 µM | 0.6 µM | CCC(C)C(NC(=O)CN1CCC(C(N)=O)(c2ccccc2)CC1)C(=O)NC(CC(C)C)C(O)CC(=O)NCCCc1ccccc1 (stereo not given)
0.47 µM |  |  | CCCC1C(=O)c2nc(CCN3N=C(Cl)CCC3=O)[nH]c2N(C)C1=O (stereo not given)
9.2 µM |  |  | CCCC1C(=O)c2nc(CN3N=C(Cl)CCC3=O)[nH]c2N(C)C1=O (stereo not given)
0.81 µM |  |  | CCCC1C(=O)c2nc(CCCN3N=C(c4ccccc4)CCC3=O)[nH]c2N(C)C1=O (stereo not given)
10.8 µM |  |  | CC1C(=O)c2nc(CCCN3N=C(c4ccccc4)CCC3=O)[nH]c2N(C)C1=O (stereo not given)
 | 1.2 µM |  | CCCCNC(=O)CC(O)C(Cc1ccccc1)NC(=O)[C@@H](NC(=O)c1ccc(CN2CCCC2)cc1)[C@@H](C)CC (stereo not given in full)
14.7 µM |  |  | CC1C(=O)c2nc(CCN3N=C(Cl)CCC3=O)[nH]c2N(C)C1=O (stereo not given)
2.12 µM |  |  | CC1C(=O)c2nc(CCCCN3N=C(c4ccccc4)CCC3=O)[nH]c2N(C)C1=O (stereo not given)
0.19 µM |  |  | CCCC1C(=O)c2nc(CCCCN3N=C(Cl)CCC3=O)[nH]c2N(C)C1=O (stereo not given)
12.8 µM |  |  | CC1C(=O)c2nc(CCN3N=CCCC3=O)[nH]c2N(C)C1=O (stereo not given)
12.7 µM |  |  | CC1C(=O)c2nc(CCCN3N=CCCC3=O)[nH]c2N(C)C1=O (stereo not given)
 | 0.05 µM | 0.09 µM | CCCCNC(=O)CC(O)C(CC(C)C)NC(=O)C(NC(=O)Cc1ccc2ccccc2c1)C(C)CC (stereo not given)
 | 0.32 µM | 0.05 µM | CCCCNC(=O)CC(O)C(Cc1ccccc1)NC(=O)C(NC(=O)Cc1ccc2ccccc2c1)C(C)CC (stereo not given)

Ki (Adenosine receptor A1) | Ki (Cathepsin D) | Ki (Plasmepsin II) | SMILES
 | 2.1 µM | 0.59 µM | CCCCNC(=O)CC(O)C(CC(C)C)NC(=O)C(NC(=O)Cc1cc(OC)ccc1C)c1ccccc1 (stereo not given)
 | 1.6 µM | 0.5 µM | CCCCNC(=O)CC(O)C(CC(C)C)NC(=O)C(NC(=O)Cc1cc(OC)ccc1C)C(C)C (stereo not given)
 | 0.92 µM | 5.6 µM | CCCCNC(=O)CC(O)C(Cc1ccccc1)NC(=O)C(CC(C)C)NC(=O)COc1ccc2ccccc2c1 (stereo not given)
0.76 µM |  |  | CCCC1C(=O)c2nc(CCN3N=C(c4ccccc4)CCC3=O)[nH]c2N(C)C1=O (stereo not given)
> 100 µM |  |  | CC1C(=O)c2nc(CN3N=C(Cl)CCC3=O)[nH]c2N(C)C1=O (stereo not given)
 | 0.11 µM | 5.8 µM | CCCCNC(=O)CC(O)C(Cc1ccccc1)NC(=O)C(NC(=O)COc1ccc2ccccc2c1)c1ccccc1 (stereo not given)
0.38 µM |  |  | CCCC1C(=O)c2nc(CCCCN3N=C(c4ccccc4)CCC3=O)[nH]c2N(C)C1=O (stereo not given)
 | 0.2 µM | 0.56 µM | CCCCNC(=O)CC(O)C(CC(C)C)NC(=O)C(NC(=O)COc1ccc2ccccc2c1)c1ccccc1 (stereo not given)
0.37 µM |  |  | CC1C(=O)c2nc(CCCCN3N=C(Cl)CCC3=O)[nH]c2N(C)C1=O (stereo not given)
1.2 µM |  |  | CCCC1C(=O)c2nc(CCCN3N=C(Cl)CCC3=O)[nH]c2N(C)C1=O (stereo not given)
 | 0.56 µM | 0.11 µM | CCCCNC(=O)C[C@H](O)[C@H](Cc1ccccc1)NC(=O)[C@@H](NC(=O)COc1ccc2ccccc2c1)C(C)CC (stereo not given in full)
6.1 µM |  |  | CC1C(=O)c2nc(CCN3N=C(c4ccccc4)CCC3=O)[nH]c2N(C)C1=O (stereo not given)
8.8 µM |  |  | CC1C(=O)c2nc(CCCN3N=C(Cl)CCC3=O)[nH]c2N(C)C1=O (stereo not given)
 | 0.2 µM | > 30 µM | CCCCNC(=O)CC(O)C(CC(C)C)NC(=O)C(CCC(N)=O)NC(=O)COc1ccc2ccccc2c1 (stereo not given)
 | 2.4 µM | 0.22 µM | CCCCNC(=O)CC(O)C(CC(C)C)NC(=O)C(NC(=O)Cc1cc(OC)ccc1C)C(C)CC (stereo not given)

SMILES | Ki (Adenosine receptor A1) | Ki (Cathepsin D) | Ki (Plasmepsin II)
CCCCNC(=O)CC(O)C(CC(C)C)NC(=O)C(NC(=O)CN1CCC(C(N)=O)(c2ccccc2)CC1)C(C)CC (stereo not given) |  | 5.5 µM | 0.41 µM
